For nine compounds, MIC results are on record in US9512075B2 (OKAYAMA UNIVERSITY, priority 2012, dated 2016).

Type in all cases: cell-based
Assay [1] deals with Staphylococcus aureus Smith strain. The assay can be described thus: MIC for Staphylococcus aureus Smith strain. The conditions noted are these: read-out: MIC Straphyrococcus aureus Smith.
Assay [2] concerns Staphylococcus aureus 209P strain. The assay can be described thus: MIC for Staphylococcus aureus 209P strain. The conditions noted are these: Staphylococcus aureus, read-out: MIC Straphyrococcus aureus 209P.
The subject of assay [3] is Staphylococcus aureus MRSA No. 17 (methicillin-resistant Staphylococcus aureus: MRSA). The assay can be described thus: MIC for Staphylococcus aureus MRSA No. 17. The conditions noted are these: read-out: MIC Straphyrococcus aureus MRSA No. 17 (MRSA).
The subject of assay [4] is Enterococcus faecalis 5038 strain. As to the kind of experiment: MIC for Enterococcus faecalis 5038 strain. Particulars: read-out: MIC Enterococcus faecalis 5038.
Assay [5] relates to Enterococcus faecalis NCTC12201 strain (vancomycin-resistant Enterococcus: VRE). The assay can be described thus: MIC for Enterococcus faecalis NCTC12201 strain (VRE). The conditions noted are these: read-out: MIC Enterococcus faecalis NCTC 12201 (VRE).
Assay [6] concerns Clostridium difficile JCM1296 strain. As to the kind of experiment: microbe, parasite or virus in culture. Particulars: Clostridioides difficile, JCM1296, read-out: MIC Clostridium difficile JCM1296.
The test system of assay [7] is Clostridium perfringens PB6K strain. As to the kind of experiment: microbe, parasite or virus in culture. The conditions noted are these: Clostridium perfringens, PB6KSTRAIN, read-out: MIC Clostridium perfringens PB6K, PB6K strain; CD medium, 37° C. overnight, 10% CO2-containing anaerobic conditions.
Assay [8] deals with Escherichia coli K-12 strain. The assay can be described thus: MIC for Escherichia coli K-12 strain. The conditions noted are these: Escherichia coli, K12STRAIN, read-out: MIC Escherichia coli K12.
Assay [9] relates to Escherichia coli BE1121 strain. As to the kind of experiment: MIC for Escherichia coli BE1121 strain. Particulars: Escherichia coli, BE1121STRAIN, read-out: MIC Escherichia coli BE1121.
Setting [10] is: Smith strain, regular bouillon medium, 37° C. overnight, turbidity.
The mark [11] stands for this setting: 209P strain, regular bouillon medium, 37° C. overnight, turbidity.
Setting [12] is: MRSA No. 17, regular bouillon medium, 37° C. overnight, turbidity.
Where [13] appears, read: 5038 strain, Heart Infusion Broth medium, 37° C. overnight, turbidity.
Setting [14] is: NCTC12201 strain (VRE), Heart Infusion Broth medium, 37° C. overnight, turbidity.
[15] abbreviates: K-12 strain, regular bouillon medium, 37° C. overnight, turbidity.
[16] abbreviates: BE1121 strain, regular bouillon medium, 37° C. overnight, turbidity.

Molecules are shown by their SMILES. In brackets after ≈: the same amount, converted by molar mass. Read-outs that look alike come from different tables or passages of the source.

Regarding `CCCCCOCC(=O)c1c(O)c2ccccc2oc1=O` [B021, 4-hydroxy-3-(pentyloxyacetyl)coumarin], the MIC worked out at 128 µg/mL (≈ 441 µM) in [1]; 32 µg/mL (≈ 110 µM) in assay [2] (209P); 123 µg/mL (≈ 424 µM) in assay [3] (MRSA); 32 µg/mL (≈ 110 µM) in assay [4] (5038STRAIN); 64 µg/mL (≈ 220 µM) in assay [5]; 8 µg/mL (≈ 27.6 µM) in [6]. The MIC in assay [7] turned out to be 32 µg/mL (≈ 110 µM); in assay [8], 128 µg/mL (≈ 441 µM); in [9], 16 µg/mL (≈ 55.1 µM).
Regarding `CCCCCCCCNC(=O)c1c(O)c2cc(F)ccc2oc1=O` [B022, 6-fluoro-3-(octylaminocarbonyl)-4-hydroxycoumarin], the MIC came out at 128 µg/mL (≈ 382 µM) in [1] (setting [10]); 128 µg/mL (≈ 382 µM) in assay [2] (setting [11]); 256 µg/mL (≈ 763 µM) in assay [3] (setting [12]); 256 µg/mL (≈ 763 µM) in assay [4] (setting [13]); 256 µg/mL (≈ 763 µM) in assay [5] (setting [14]); 16 µg/mL (≈ 47.7 µM) in [6]. In addition, the values for the MIC in assay [7], in assay [8] (setting [15]) and in [9] (setting [16]) were 64 µg/mL (≈ 191 µM), 256 µg/mL (≈ 763 µM) and 128 µg/mL (≈ 382 µM), respectively.
Take `CCCCCCCCCCSCC(=O)c1c(O)c2ccccc2oc1=O` [B023]: the MIC in assay [1] was 0.25 µg/mL (≈ 0.664 µM); in assay [2] (setting [11]) it was 1 µg/mL (≈ 2.66 µM); in [3] (MRSA) it was 1 µg/mL (≈ 2.66 µM); in [4] (5038STRAIN), 0.25 µg/mL (≈ 0.664 µM); in assay [5] (NCTC12201|VRE), 0.25 µg/mL (≈ 0.664 µM); in assay [6], less than 0.125 µg/mL. Further, the MIC in assay [7] is less than 0.125 µg/mL; in assay [8] (setting [15]), 256 µg/mL (≈ 680 µM); in assay [9] (setting [16]), 2 µg/mL (≈ 5.31 µM).
For the compound `CCCCc1ccc(COCC(=O)c2c(O)c3ccccc3oc2=O)cc1` [B024, 3-(4-butylphenylmethoxyl)acetyl-4-hydroxycoumarin], the MIC in assay [1] was 8 µg/mL (≈ 21.8 µM); in assay [2] (setting [11]) it was 4 µg/mL (≈ 10.9 µM); in assay [3] (MRSA), 64 µg/mL (≈ 175 µM); in assay [4] (5038STRAIN) it was 2 µg/mL (≈ 5.46 µM); in [5] it was 2 µg/mL (≈ 5.46 µM); in assay [6], 0.25 µg/mL (≈ 0.682 µM). Besides, the MIC in [7] worked out at 1 µg/mL (≈ 2.73 µM); in assay [8] (setting [15]), 256 µg/mL (≈ 699 µM); in [9] (setting [16]), 2 µg/mL (≈ 5.46 µM).
`CCCCCCCCCCCCNC(=O)c1c(O)c2ccccc2oc1=O` [B025, 3-(dodecylaminocarbonyl)-4-hydroxycoumarin]: the MIC stood at 2 µg/mL (≈ 5.35 µM) in assay [1] (setting [10]); 8 µg/mL (≈ 21.4 µM) in assay [2] (setting [11]); 8 µg/mL (≈ 21.4 µM) in [3] (setting [12]); 2 µg/mL (≈ 5.35 µM) in assay [4] (setting [13]); 1 µg/mL (≈ 2.68 µM) in assay [5] (setting [14]); 4 µg/mL (≈ 10.7 µM) in assay [6]. Besides, the MIC in [7] worked out at 4 µg/mL (≈ 10.7 µM); in [8] (setting [15]), 256 µg/mL (≈ 685 µM); in [9] (setting [16]), 256 µg/mL (≈ 685 µM).
As to `CCCCCCCCCCSCC(=O)c1c(O)c2cc(F)ccc2oc1=O` [B027], the MIC in assay [1] is 0.25 µg/mL (≈ 0.634 µM); in assay [2] (setting [11]) it was 2 µg/mL (≈ 5.07 µM); in assay [3] (MRSA), 1 µg/mL (≈ 2.53 µM); in assay [4] (5038STRAIN) it was 0.25 µg/mL (≈ 0.634 µM); in [5] (NCTC12201|VRE), less than 0.125 µg/mL; in assay [6], less than 0.125 µg/mL. The MIC worked out at 0.25 µg/mL (≈ 0.634 µM) in assay [7], 256 µg/mL (≈ 649 µM) in assay [8] (setting [15]) and 4 µg/mL (≈ 10.1 µM) in [9] (setting [16]).
Turning to `CCCCCCCCCCOCC(=O)c1c(O)c2cc(Cl)ccc2oc1=O` [B028, 3-decyloxyacetyl-6-chloro-4-hydroxycoumarin], the MIC in assay [1] (setting [10]) was found to be 8 µg/mL (≈ 20.3 µM); in [2] (setting [11]), 128 µg/mL (≈ 324 µM); in assay [3] (setting [12]), 256 µg/mL (≈ 648 µM); in assay [4] (setting [13]) it was 256 µg/mL (≈ 648 µM); in assay [5] (setting [14]) it was 256 µg/mL (≈ 648 µM); in assay [6] it was 0.25 µg/mL (≈ 0.633 µM). The MIC in assay [7] amounted to 0.25 µg/mL (≈ 0.633 µM); in [8] (setting [15]) it was 256 µg/mL (≈ 648 µM); in [9] (setting [16]) it was 256 µg/mL (≈ 648 µM).
Consider `CCCCCCCCCCOCC(=O)c1c(O)c2cc(C)ccc2oc1=O` [B029, 3-decyloxyacetyl-6-methyl-4-hydroxycoumarin], for which the MIC in [1] (setting [10]) was 4 µg/mL (≈ 10.7 µM); in assay [2] (setting [11]), 256 µg/mL (≈ 684 µM); in [3] (setting [12]), 256 µg/mL (≈ 684 µM); in [4] (setting [13]), 8 µg/mL (≈ 21.4 µM); in [5] (setting [14]) it was 2 µg/mL (≈ 5.34 µM); in assay [6], less than 0.125 µg/mL. In addition, the MIC is less than 0.125 µg/mL in [7], 256 µg/mL (≈ 684 µM) in assay [8] (setting [15]) and 256 µg/mL (≈ 684 µM) in assay [9] (setting [16]).
Consider `CCCCCCCCOCC(=O)c1c(O)c2ccccc2oc1=O` [B030, 3-octyloxyacetyl-4-hydroxycoumarin], for which the MIC in assay [1] was 2 µg/mL (≈ 6.02 µM); in assay [2] (setting [11]), 4 µg/mL (≈ 12 µM); in assay [3] (MRSA), 1 µg/mL (≈ 3.01 µM); in assay [4] (5038STRAIN) it was 2 µg/mL (≈ 6.02 µM); in assay [5], 4 µg/mL (≈ 12 µM); in assay [6] it was 0.25 µg/mL (≈ 0.752 µM). Further, the MIC is 0.25 µg/mL (≈ 0.752 µM) in assay [7], 128 µg/mL (≈ 385 µM) in [8] (setting [15]) and 2 µg/mL (≈ 6.02 µM) in assay [9] (setting [16]).
